Patent US20130115256A1, “METHODS FOR TREATING OR PREVENTING VASCULAR GRAFT FAILURE” (priority 2010, published 2013)

Key:
[1] = system: human saphenous vein (HSV); test: Sodium nitroprusside-induced relaxation of human saphenous vein in muscle bath; details: for relaxation (percent relaxation): 100 μM pretreatment, phenylephrine 10^-6 M
Procedure: In preparation for testing vein segment functional viability, HSV rings were weighed and their lengths recorded. To focus on smooth muscle responses, the endothelium was mechanically denuded by rolling the luminal surface of each ring at the tip of a fine vascular forceps before suspension in a muscle bath containing a bicarbonate buffer (120 mM NaCl, 4.7 mM KCl, 1.0 mM MgSO4, 1.0 mM NaH2PO4, 10 mM glucose, 1.5 mM CaCl2, and 25 mM […], pH 7.4) equilibrated with 95% O2 and 5% CO2 at 37° C. The rings were stretched and the length progressively adjusted until maximal tension was obtained. Normalized reactivity was obtained by determining the passive length-tension relationship for each vessel segment. Rings were maintained at a resting tension of 1 g, which produces maximal responses to contractile agonists as previously determined, and equilibrated for 2 hours in buffer. Force measurements were obtained using a Radnoti Glass Technology (Monrovia, Calif.) force transducer (159901A) interfaced with a Powerlab data acquisition system and Chart software (AD Instruments, Colorado Springs, Colo.).
HSV rings were first contracted with 110 mM KCl (with equimolar replacement of NaCl in bicarbonate buffer) and the generated force was measured. 110 mM KCl causes membrane depolarization, leading to contraction of vessels containing functionally viable smooth muscle. After multiple KCl challenges, rings were washed and allowed to equilibrate in bicarbonate solution for 30 min, and then contracted with phenylephrine (PE, 10^−7-10^−6 M). Rings were relaxed with a cumulative log dose of sodium nitroprusside (SNP), a nitric oxide donor, and the force generated was recorded. All rings were again washed and equilibrated in buffer for 15 minutes. Rings were then incubated with either buffer alone or buffer plus 100 μM of MMI-0100 ([…] (SEQ ID NO: 1)) for 2 hours, followed by treatment with the same doses of PE and SNP, and the forces generated again recorded. Measured force was normalized for ring weight and length and percent relaxation was calculated; force generated with 10^−6M of PE was set as 0% relaxation.
The enhancing effect of MMI-0100 ([…]; SEQ ID NO: 1) on smooth muscle relaxation was examined by pre-treating harvested human saphenous vein (HSV) with MMI-0100 ([…]; SEQ ID NO: 1) before SNP treatment. Segments of human saphenous vein (HSV) were equilibrated in a muscle bath and pretreated with a control solution (0.01M phosphate-buffered solution, PBS) or MMI-0100 ([…] (SEQ ID NO: 1); 30 μM, 2 hrs), contracted with norepinephrine. and relaxed with increasing doses of sodium nitroprusside (SNP, 0-1 μM). Percentage of relaxation at 0, 0.01, 0.1, and 1.0 μM of SNP was measured. […]

[2] = system: mouse vein graft (intrathoracic inferior vena cava); test: Mouse vein graft model; format: in vivo
Procedure: 12-week-old C57BL/6 wild type mice (Harlan) were used for all experiments, as previously described (Muto, A. et al., J. Exp. Med., 2011, 208(3): 561-575, incorporated herein by reference in its entirety). […] Prior to implantation, the vein was treated ex vivo with 100 μM of MMI-0100 ([…] (SEQ ID NO: 1)) peptide solution, or control PBS solution, for 20 minutes at room temperature.
To implant the vein graft, a midline incision was made in the abdomen of a recipient mouse and the infrarenal abdominal aorta was exposed. The abdominal aorta was temporarily occluded with atraumatic micro-clamps and a segment corresponding to the length of the vein graft was excised. The vein was sutured into the arterial circulation using 10-0 nylon in continuous fashion.
Vein grafts were followed postoperatively using the Vevo770® High-Resolution Imaging System (VisualSonics, Toronto, Canada), with weekly measurements of graft wall thickness. At 28 days after surgery, mice were sacrificed to allow explantation of the vein graft. Tissue was either frozen with RNA stabilization reagent (Qiagen) or explanted for paraffin embedding after circulatory flushing with ice-cold PBS followed by 4% paraformaldehyde perfusion-fixation. Vein graft wall thickness, lumen diameter, and outer wall diameter (elastic lamina) were measured in elastin-stained sections using computer morphometry (ImageJ).
Vein graft samples were fixed as described above and harvested for histology. Specimens were embedded in paraffin and cut in cross section (5 μm). Hematoxylin & Eosin, Masson trichrome, and van Gieson elastin staining were performed for all samples. Cells were cultured on gelatin-coated cover slips and fixed with methanol.
All sections were treated for antigen retrieval using 10 mmol/L citrate buffer (pH 6.0) prior to boiling or proteinase K (20 μg/ml) treatment, at room temperature, for 10-15 minutes. Immunohistochemical detection was performed using DAB as well as NovaRED® substrate (Vector). Sections were counterstained with Mayer's Hematoxylin.
The efficacy of MMI-0100 ([…]; SEQ ID NO: 1) in treating intimal hyperplasia in vivo was examined using a mouse model of vein bypass graft. […] The IVC was soaked in a 100 μM solution of MMI-0100 ([…]; SEQ ID NO: 1) at room temperature for 20 minutes prior to implantation into a host (C57BL/6J) mouse to bypass the infrarenal aorta. Five treated and six untreated veins were transplanted for a total of 11 transplanted animals. Vein graft wall thickness was determined using a Vevo7700 ultrasound imaging system at each week. […]

Sequence: YARAAARQARAKALARQLGVAA [MMI-0100]
- increase in relaxation compared to HSV pretreated with control solution ([1]; 30 μM, 2 hrs pretreatment, norepinephrine contraction, SNP 0-1 μM, n=3): about 40%
- relaxation (percent relaxation) ([1]; 10^-7 M SNP (untreated control 72.768±6.99)): 92.54±3.09
- relaxation (percent relaxation) ([1]; 10^-8 M SNP (untreated control 10.825±5.62)): 25.622±6.38
- reduced wall thickness compared to control grafts, histological staining ([2]; 100 μM ex vivo 20 minutes, 4 weeks): 72%
- F4/80-positive cells infiltrating into vein grafts ([2]; 100 μM ex vivo 20 minutes, 4 weeks, immunohistochemistry): fewer
- vein graft wall thickness ratio by ultrasound ([2]; follow-up study, 100 μM ex vivo 20 minutes, 4 weeks (control grafts 4.7-fold)): 2.6 fold
- grafted vessel wall thickness relative to the originally harvested IVC ([2]; vein soaked ex vivo in 100 μM for 20 minutes, 4 weeks after graft, ultrasound (control almost five times)): about 2.5 times
